Assay results from EP0341661A2, “Peptide-drug compositions containing alpha-aminoboronic acid derivatives” (THE DU PONT MERCK PHARMACEUTICAL COMPANY, priority 1988, dated 1989).

What was measured:
aminopeptidases [1] = assay: In situ nasal perfusion: degradation of 100 µM leucine enkephalin in the nasal perfusate; assay type: in vivo, Sprague-Dawley rats; conditions: for % Leucine Enkephalin Remaining: 0.1 µM inhibitor; for order of inhibition of degradation: 0.1 µM boroleucine, 10 µM bestatin, 100 µM puromycin
Procedure: In order to evaluate the effectiveness of the α-aminoboronic acid derivative inhibitors of this invention, an animal model was used (according to A. Hussain, J. Furaj, A. Yukihiko and J. E. Truelove, Biochem. Biophys. Res. Com. 133, 923, 1985) to assess the degradation of proteins and peptides in situ and in vivo in situ in the nasal cavity of rats. The method involved the use of Sprague-Dawley rats weighing approximately 300 grams. Each rat was anesthetized with sodium pentobarbitol (50 mg/kg). An incision was made in the neck and the trachea was canulated with PE 240 tubing. For the in situ studies, a second tube, which served to introduce the perfusing solution, was inserted through the esophagus to the posterior part of the nasal cavity. The nasopalatine was closed with an adhesive to prevent drainage of the perfusing solution from the nasal to the oral cavity. For the in vivo in situ studies, the esophagus was canulated using PE 240 tubing closed at one end. The closed end was pushed to the posterior end of the nasal passage and then tied in place. The nasopalatine was closed with an adhesive to prevent drainage of the perfusing solution from the nasal to the oral cavity. The rats were dosed in one nostril with 50 µl of peptide solution in two forms; the control solution had no inhibitor added, the test solution had inhibitor added at concentrations specified in the examples shown below. The dosing solution was 0.1 M phosphate buffer (pH 7.4). At certain time intervals (one rat/time interval), the drug was washed from the nose via the other nostril with 10 ml of 0.1 M phosphate buffer (pH 3.8) using a peristaltic pump. The nasal washing was then placed in a 10 ml volumetric flask and adjusted to 10 ml with the same buffer and analyzed for the peptide by HPLC. The analysis of leucine enkephalin and its major metabolite involved taking aliquots of samples, diluting them with 200 µl of 0.1 M citric acid (pH 2.3) to quench hydrolysis and subjecting the samples to analysis (for in vivo in situ studies, the washings were injected as they were obtained). High Pressure Liquid Chromatography (HPLC) was run on a 4.6 x 250 mm C₈ column. The mobile phase consisted of 0.1 M NaH₂PO₄-H₃PO₄-acetonitrile (916 : 5 : 275) and was delivered at a flow rate of 1.7 ml/min. Detection was by UV at 210 nm. Retention times for leucine enkephalin and its major degradation product, Des-Tyr-leucine enkephalin were 7.3 and 4.8 min., respectively. Data were calculated as % of leucine enkephalin remaining in the nasal perfusate as a function of time, counting the concentration at zero time as 100%. In this example, a 10 ml solution of 0.1 M phosphate buffer solution (pH 7.4) containing 100 µM leucine enkephalin (the peptide) in the absence or presence of 0.1 µM 3-methyl-1(4,4,5,5-tetramethyl-1,3,2-dioxaborolane-2-yl)-1-butamine, trifluoroacetic acid salt (boroleucine) as the inhibitor was perfused nasally in rats as described above. A 10 ml portion of the peptide solution was placed in a water-jacketed container, maintained at 37°C and circulated through the nasal cavity of rats using a peristaltic pump. The perfusing solution was passed through the nasal cavity, out the nostrils, through a funnel, and returned to the water-jacketed container. The perfusate was analyzed by the ANALYTICAL METHOD described above.

[2] = in vivo, cited from earlier work
aminopeptidases [3] = assay: In situ nasal perfusion: degradation of 100 µM leucine enkephalin in the nasal perfusate; assay type: in vivo, Sprague-Dawley rats; conditions: 10 µM inhibitor

With `CC(N)B1OC(C)(C)C(C)(C)O1.O=C(O)C(F)(F)F` (stereo not drawn) [boroalanine, α,4,4,5,5-pentamethyl-1,3,2-dioxaborolane-2-methanamine, trifluoroacetic acid salt] the “% Leucine Enkephalin Remaining” value (aminopeptidases [1]; 0 min) was 100.0± 0.0%, the “% Leucine Enkephalin Remaining” value (aminopeptidases [1]; 5 min) was 94.7± 3.0% and the “% Leucine Enkephalin Remaining” value (aminopeptidases [1]; 10 min) was 91.9± 2.1%. For the same compound, the “% Leucine Enkephalin Remaining” value (aminopeptidases [1]; 20 min) was 88.5± 2.2%, the “% Leucine Enkephalin Remaining” value (aminopeptidases [1]; 30 min) was 84.1± 3.1% and the “% Leucine Enkephalin Remaining” value (aminopeptidases [1]; 45 min) was 77.5± 4.4%. For the same compound, the “% Leucine Enkephalin Remaining” value (aminopeptidases [1]; 60 min) was 69.9± 6.7% and the “% Leucine Enkephalin Remaining” value (aminopeptidases [1]; 90 min) was 56.4±12.1%.
In the case of leuprolide, the “improvement of bioavailability over the oral route (factor)” value ([2]; po) is listed as 112 times and the drug absorbed systemically ([2]; sc) is listed as “over 65%”.
In the case of `COc1ccc(C[C@H](N)C(=O)N[C@H]2[C@@H](O)[C@H](n3cnc4c(N(C)C)ncnc43)O[C@@H]2CO)cc1` [Puromycin, puromycin, reference compound], the “order of inhibition of degradation” value (aminopeptidases [1]) is reported as “boroleucine> bestatin> puromycin”, the “% of leucine enkephalin remaining in the nasal perfusate” value (“% of leucine enkephalin remaining” below) (aminopeptidases [1]; 100 µM inhibitor, 0 min) is reported as 100.0±0.0% and the “% of leucine enkephalin remaining” value (aminopeptidases [1]; 100 µM inhibitor, 5 min) is reported as 96.7±2.4%. The “% of leucine enkephalin remaining” value (aminopeptidases [1]; 100 µM inhibitor, 10 min) was 91.3±3.4%, the “% of leucine enkephalin remaining” value (aminopeptidases [1]; 100 µM inhibitor, 20 min) was 82.4±4.1% and the “% of leucine enkephalin remaining” value (aminopeptidases [1]; 100 µM inhibitor, 30 min) was 78.5±3.2%. For the same compound, the “% of leucine enkephalin remaining” value (aminopeptidases [1]; 100 µM inhibitor, 45 min) was 73.6±2.2%, the “% of leucine enkephalin remaining” value (aminopeptidases [1]; 100 µM inhibitor, 60 min) was 63.5±5.6% and the “% of leucine enkephalin remaining” value (aminopeptidases [1]; 100 µM inhibitor, 90 min) was 48.9±6.7%.
With `CC(C)C[C@H](NC(=O)[C@@H](O)[C@H](N)Cc1ccccc1)C(=O)O` [Bestatin, bestatin, reference compound] the “order of inhibition of degradation” value (aminopeptidases [1]) was “boroleucine> bestatin> puromycin”, the “% of leucine enkephalin remaining” value (aminopeptidases [1]; 10 µM inhibitor, 0 min) was 100.0±0.0% and the “% of leucine enkephalin remaining” value (aminopeptidases [1]; 10 µM inhibitor, 10 min) was 94.7±1.7%. The “% of leucine enkephalin remaining” value (aminopeptidases [1]; 10 µM inhibitor, 30 min) was 86.6±3.8%, the “% of leucine enkephalin remaining” value (aminopeptidases [1]; 10 µM inhibitor, 45 min) was 79.0±5.3% and the “% of leucine enkephalin remaining” value (aminopeptidases [1]; 10 µM inhibitor, 90 min) was 57.3±8.8%. The “% of leucine enkephalin remaining” value (aminopeptidases [3]; 5 min) was 97.3±1.6%, the “% of leucine enkephalin remaining” value (aminopeptidases [3]; 20 min) was 90.0±3.3% and the “% of leucine enkephalin remaining” value (aminopeptidases [3]; 60 min) was 72.3±6.7%.
With `CC(C)C(N)B1OC(C)(C)C(C)(C)O1.O=C(O)C(F)(F)F` (stereo not drawn) [borovaline, 4,4,5,5-tetramethyl-α-(1-methylethyl)-1,3,2-dioxaborolane-2-methanamine, trifluoroacetic acid salt] the “% Leucine Enkephalin Remaining” value (aminopeptidases [1]; 0 min) was 100.0±0.0%, the “% Leucine Enkephalin Remaining” value (aminopeptidases [1]; 5 min) was 96.3±1.9% and the “% Leucine Enkephalin Remaining” value (aminopeptidases [1]; 10 min) was 95.7±1.5%. The “% Leucine Enkephalin Remaining” value (aminopeptidases [1]; 20 min) was 94.8±1.4%, the “% Leucine Enkephalin Remaining” value (aminopeptidases [1]; 30 min) was 91.6±1.6% and the “% Leucine Enkephalin Remaining” value (aminopeptidases [1]; 45 min) was 89.1±2.5%. For the same compound, the “% Leucine Enkephalin Remaining” value (aminopeptidases [1]; 60 min) was 86.2±2.5%, the “% Leucine Enkephalin Remaining” value (aminopeptidases [1]; 90 min) was 78.3±4.3% and the “comparison of the inhibitory effect of equimolar concentrations” value (aminopeptidases [1]; 0.1 µM of each inhibitor) was “superior to boroalanine”.
